Measured values taken from patent US20250059201A1, “CAMPTOTHECIN COMPOUND AND CONJUGATE THEREOF” (priority 2021, published 2025).
Where “and” joins values, the source holds several entries; their conditions need not be identical. Equal entries are not always repeated.

Columns and labels:
[1] = system: BxPC-3 human pancreatic adenocarcinoma cells; test: Comparative study of the activity of camptothecins (CCK-8 cell killing); format: cell-based
Experimental: (§1) KB oral epithelial cancer cells (purchased from: ATCC) were cultured in DMEM medium supplemented with 10% FBS; NCI-N87 human gastric cancer cells (purchased from: ATCC) were cultured in RPMI1640 medium supplemented with 10% FBS; HT29 human colon cancer cells (purchased from: ATCC) were cultured in RPMI1640 medium supplemented with 10% FBS; and BxPC-3 human pancreatic adenocarcinoma cells (purchased from: ATCC) were cultured in RPMI1640 medium supplemented with 10% FBS.
(§2) Using corresponding media described above and in cell plates, the density of KB cells was adjusted to 2×10^4/mL; the density of NCI-N87 cells was adjusted to 5×10^4/mL; the density of HT29 cells was adjusted to 5×10^4/mL, and the cells were plated onto 96-well transparent flat bottom plates, at 100 µL/well, and cultured overnight; and the density of BxPC-3 cells was adjusted to 5×10^4/mL.
(§3) Samples to be detected were diluted to 20 μM with corresponding media, then 5-fold gradient dilution was performed, and 9 concentrations were obtained. A well having cells but with no any sample added was set as the well showing maximum cell growth; and a well having no cells was set as the well of medium background. The diluted samples were added into the cell plates, at 100 μL/well, which were then incubated in a C02 incubator for 96 hours. After the incubation, CCK-8 (purchased from: DOJINDO LABORATORIES) prepared beforehand was added into the plates, at 20 μL/well, and after further 3 hours incubation in the C02 incubator, […] were read on a microplate reader.
(§4) Data obtained was fitted to a four-parameter curve using software Prism7, and equation for calculating maximum killing is: maximum killing (%)=1−(OD450 value of the well showing maximum killing—OD450 value of the well of medium background)/(OD450 value of the well showing maximum cell growth—OD450 value of the cell of medium background)[…].

[2] = system: NCI-N87 human gastric cancer cells; test: as above; format: cell-based; conditions: Homo sapiens, NCI-N87, 96 h, read-out: Maximum Killing (%), NCI-N87, killing days 4 days
Experimental: as §1, §2, §3, §4

CC[C@@]1(O)C(=O)OCc2c1cc1n(c2=O)Cc2c-1nc1ccc(N)c3c1c2C(F)(F)CC3 [Compound 3]
EC50 ([1]; BxPC-3, killing days 4 days): 3.23 nM and 5.82 nM
Emax ([1]; Homo sapiens, BXPC-3, 96 h, read-out: Maximum Killing (%), BxPC-3, killing days 4 days): 98%
Emax [2]: 92.1%
